Legend:
ISC-enriched organoids [1] = test: Primary screen, 384-well 2.5-D organoid differentiation (ENR+CD, 6 days): carbachol-induced lysozyme secretion (LYZ.S); type: cell-based, murine; conditions: for Dose.FC.LYZ.S / Z.LYZ.S / SSMD.LYZ.S: primary screen; for Dose.FC.LYZ.S: FC vs plate median; for Z.LYZ.S: standard z score; for SSMD.LYZ.S: strictly standardized mean difference
From the text: (§1) High-throughput screening.

ISC-enriched organoids [2] = test: Primary screen, 384-well 2.5-D organoid differentiation (ENR+CD, 6 days, Target Selective Inhibitor Library, vs whole-plate median): ATP (CellTiter-Glo 3D, CTG); conditions: for Dose.FC.CTG: FC vs plate median; for Z.CTG: standard z score of FC; for SSMD.CTG: strictly standardized mean difference
ISC-enriched organoids [3] = test: Primary screen, 384-well 2.5-D organoid differentiation (ENR+CD, 6 days): basal lysozyme secretion (LYZ.NS); type: cell-based, murine; conditions: for Dose.FC.LYZ.NS: FC vs plate median; for Z.LYZ.NS: standard z score of FC; for SSMD.LYZ.NS: strictly standardized mean difference
From the text: as §1

[4] = primary screen, dose 0.08 uM, ENR+CD 6 days
[5] = primary screen, dose 0.40 uM, ENR+CD 6 days
[6] = primary screen, dose 2.00 uM, ENR+CD 6 days
[7] = primary screen, dose 10.00 uM, ENR+CD 6 days
[8] = 1st of the 4 dose lines of the treatment (dose not given)
[9] = 2nd of the 4 dose lines of the treatment (dose not given)
[10] = 3rd of the 4 dose lines of the treatment (dose not given)
[11] = 4th of the 4 dose lines of the treatment (dose not given)
[12] = primary screen, 1st of the 4 dose lines of the treatment (dose not given)
[13] = primary screen, 2nd of the 4 dose lines of the treatment (dose not given)
[14] = primary screen, 3rd of the 4 dose lines of the treatment (dose not given)
[15] = primary screen, 4th of the 4 dose lines of the treatment (dose not given)
[16] = dose 0.08 uM (1st of 4 lines per treatment; dose not printed in this part)
[17] = dose 0.40 uM (2nd of 4 lines per treatment; dose not printed in this part)
[18] = dose 2.00 uM (3rd of 4 lines per treatment; dose not printed in this part)
[19] = dose 10.00 uM (4th of 4 lines per treatment; dose not printed in this part)

`CC(C)c1c(C(=O)Nc2ccccc2)c(-c2ccccc2)c(-c2ccc(F)cc2)n1CC[C@@H](O)C[C@@H](O)CC(=O)[O-].CC(C)c1c(C(=O)Nc2ccccc2)c(-c2ccccc2)c(-c2ccc(F)cc2)n1CC[C@@H](O)C[C@@H](O)CC(=O)[O-].[Ca+2]` [Atorvastatin Calcium] was tested, and the Dose.FC.LYZ.S (ISC-enriched organoids [1]; dose 0.08 uM, ENR+CD 6 days) was 0.022 log 2 fold change, the Dose.FC.LYZ.S (ISC-enriched organoids [1]; dose 0.40 uM, ENR+CD 6 days) was −0.062 log 2 fold change and the Dose.FC.LYZ.S (ISC-enriched organoids [1]; dose 2.00 uM, ENR+CD 6 days) was −0.354 log 2 fold change. The Dose.FC.LYZ.S (ISC-enriched organoids [1]; dose 10.00 uM, ENR+CD 6 days) was −0.305 log 2 fold change, the Dose.FC.CTG (ISC-enriched organoids [2]; [4]) was −0.129 log 2 fold change and the Z.CTG (ISC-enriched organoids [2]; primary screen, dose 0.08 uM) was −0.309. It also gave a Dose.FC.CTG (ISC-enriched organoids [2]; [5]) of −0.348 log 2 fold change, a Z.CTG (ISC-enriched organoids [2]; primary screen, dose 0.40 uM) of −0.831 and a Dose.FC.CTG (ISC-enriched organoids [2]; [6]) of −1.085 log 2 fold change. For the same molecule, the Z.CTG (ISC-enriched organoids [2]; primary screen, dose 2.00 uM) was −2.591, the Dose.FC.CTG (ISC-enriched organoids [2]; [7]) was −1.583 log 2 fold change and the Z.CTG (ISC-enriched organoids [2]; primary screen, dose 10.00 uM) was −3.780. For the same molecule, the Dose.FC.LYZ.NS (ISC-enriched organoids [3]; [4]) was −0.009 log 2 fold change, the Z.LYZ.NS (ISC-enriched organoids [3]; primary screen, dose 0.08 uM) was −0.077 and the Dose.FC.LYZ.NS (ISC-enriched organoids [3]; [5]) was 0.007 log 2 fold change. The Z.LYZ.NS (ISC-enriched organoids [3]; primary screen, dose 0.40 uM) was 0.062, the Dose.FC.LYZ.NS (ISC-enriched organoids [3]; [6]) was −0.247 log 2 fold change and the Z.LYZ.NS (ISC-enriched organoids [3]; primary screen, dose 2.00 uM) was −2.148. It also gave a Dose.FC.LYZ.NS (ISC-enriched organoids [3]; [7]) of −0.235 log 2 fold change and a Z.LYZ.NS (ISC-enriched organoids [3]; primary screen, dose 10.00 uM) of −2.045.
Work on `O=C(NCCN1CCOCC1)c1ccc(Cl)cc1` [Moclobemide (Ro 111163)] yielded a Dose.FC.LYZ.S (ISC-enriched organoids [1]; Dose 0.08 uM) of 0.147 log 2 fold change, a Dose.FC.LYZ.S (ISC-enriched organoids [1]; Dose 0.40 uM) of 0.094 log 2 fold change and a Dose.FC.LYZ.S (ISC-enriched organoids [1]; Dose 2.00 uM) of 0.012 log 2 fold change. For the same molecule, the Dose.FC.LYZ.S (ISC-enriched organoids [1]; Dose 10.00 uM) was 0.019 log 2 fold change, the Z.LYZ.S (ISC-enriched organoids [1]; [8]) was 0.953 and the Z.LYZ.S (ISC-enriched organoids [1]; [9]) was 0.607. For the same molecule, the Z.LYZ.S (ISC-enriched organoids [1]; [10]) was 0.078, the Z.LYZ.S (ISC-enriched organoids [1]; [11]) was 0.123 and the SSMD.LYZ.S (ISC-enriched organoids [1]; [8]) was 0.495. The SSMD.LYZ.S (ISC-enriched organoids [1]; [9]) was 0.348, the SSMD.LYZ.S (ISC-enriched organoids [1]; [10]) was 0.056 and the SSMD.LYZ.S (ISC-enriched organoids [1]; [11]) was 0.135. For the same molecule, the Dose.FC.CTG (ISC-enriched organoids [2]; Dose 0.08 uM, primary screen) was 0.146 log 2 fold change, the Z.CTG (ISC-enriched organoids [2]; Dose 0.08 uM) was 0.348 and the Dose.FC.CTG (ISC-enriched organoids [2]; Dose 0.40 uM, primary screen) was 0.106 log 2 fold change. The Z.CTG (ISC-enriched organoids [2]; Dose 0.40 uM) was 0.252, the Dose.FC.CTG (ISC-enriched organoids [2]; Dose 2.00 uM, primary screen) was 0.116 log 2 fold change and the Z.CTG (ISC-enriched organoids [2]; Dose 2.00 uM) was 0.276. It also gave a Dose.FC.CTG (ISC-enriched organoids [2]; Dose 10.00 uM, primary screen) of 0.042 log 2 fold change, a Z.CTG (ISC-enriched organoids [2]; Dose 10.00 uM) of 0.100 and an SSMD.CTG (ISC-enriched organoids [2]; [12]) of 0.257. For the same molecule, the SSMD.CTG (ISC-enriched organoids [2]; [13]) was 0.148, the SSMD.CTG (ISC-enriched organoids [2]; [14]) was 0.227 and the SSMD.CTG (ISC-enriched organoids [2]; [15]) was 0.115. For the same molecule, the Dose.FC.LYZ.NS (ISC-enriched organoids [3]; Dose 0.08 uM, primary screen) was 0.075 log 2 fold change, the Z.LYZ.NS (ISC-enriched organoids [3]; Dose 0.08 uM) was 0.654 and the Dose.FC.LYZ.NS (ISC-enriched organoids [3]; Dose 0.40 uM, primary screen) was 0.121 log 2 fold change. It also gave a Z.LYZ.NS (ISC-enriched organoids [3]; Dose 0.40 uM) of 1.055, a Dose.FC.LYZ.NS (ISC-enriched organoids [3]; Dose 2.00 uM, primary screen) of 0.001 log 2 fold change and a Z.LYZ.NS (ISC-enriched organoids [3]; Dose 2.00 uM) of 0.011. The Dose.FC.LYZ.NS (ISC-enriched organoids [3]; Dose 10.00 uM, primary screen) was −0.028 log 2 fold change, the Z.LYZ.NS (ISC-enriched organoids [3]; Dose 10.00 uM) was −0.243 and the SSMD.LYZ.NS (ISC-enriched organoids [3]; [12]) was 0.302. For the same molecule, the SSMD.LYZ.NS (ISC-enriched organoids [3]; [13]) was 0.415, the SSMD.LYZ.NS (ISC-enriched organoids [3]; [14]) was 0.007 and the SSMD.LYZ.NS (ISC-enriched organoids [3]; [15]) was −0.219.
In the case of `COc1cc2c(cc1O)CC[C@@H]1[C@@H]2CC[C@]2(C)[C@@H](O)CC[C@@H]12` [2-Methoxyestradiol (2-MeOE2)], the “SSMD.LYZ.S_Rep (strictly standardized mean difference)” value (ISC-enriched organoids [1]; [16]) is reported as 1.015, the “Z.LYZ.S (standard z score)” value (ISC-enriched organoids [1]; [16]) is reported as 1.224 and the “SSMD.LYZ.S_Rep (strictly standardized mean difference)” value (ISC-enriched organoids [1]; [17]) is reported as 0.831. The “Z.LYZ.S (standard z score)” value (ISC-enriched organoids [1]; [17]) was 1.747, the “SSMD.LYZ.S_Rep (strictly standardized mean difference)” value (ISC-enriched organoids [1]; [18]) was 0.144 and the “Z.LYZ.S (standard z score)” value (ISC-enriched organoids [1]; [18]) was 0.190. For the same molecule, the “SSMD.LYZ.S_Rep (strictly standardized mean difference)” value (ISC-enriched organoids [1]; [19]) was −1.135, the “Z.LYZ.S (standard z score)” value (ISC-enriched organoids [1]; [19]) was −1.795 and the Dose.FC.LYZ.S (ISC-enriched organoids [1]; dose 0.08 uM, ENR+CD 6 days) was 0.189 log 2 fold change. It also gave a Dose.FC.LYZ.S (ISC-enriched organoids [1]; dose 0.40 uM, ENR+CD 6 days) of 0.270 log 2 fold change, a Dose.FC.LYZ.S (ISC-enriched organoids [1]; dose 2.00 uM, ENR+CD 6 days) of 0.029 log 2 fold change and a Dose.FC.LYZ.S (ISC-enriched organoids [1]; dose 10.00 uM, ENR+CD 6 days) of −0.278 log 2 fold change. The “SSMD.CTG_Rep (strictly standardized mean difference)” value (ISC-enriched organoids [2]; [16]) was 0.407, the “SSMD.CTG_Rep (strictly standardized mean difference)” value (ISC-enriched organoids [2]; [17]) was 0.930 and the “SSMD.CTG_Rep (strictly standardized mean difference)” value (ISC-enriched organoids [2]; [18]) was 0.461. The “SSMD.CTG_Rep (strictly standardized mean difference)” value (ISC-enriched organoids [2]; [19]) was −0.878, the Dose.FC.CTG (ISC-enriched organoids [2]; [4]) was 0.299 log 2 fold change and the Z.CTG (ISC-enriched organoids [2]; primary screen, dose 0.08 uM) was 0.714. It also gave a Dose.FC.CTG (ISC-enriched organoids [2]; [5]) of 0.401 log 2 fold change, a Z.CTG (ISC-enriched organoids [2]; primary screen, dose 0.40 uM) of 0.957 and a Dose.FC.CTG (ISC-enriched organoids [2]; [6]) of 0.227 log 2 fold change. The Z.CTG (ISC-enriched organoids [2]; primary screen, dose 2.00 uM) was 0.543, the Dose.FC.CTG (ISC-enriched organoids [2]; [7]) was −0.672 log 2 fold change and the Z.CTG (ISC-enriched organoids [2]; primary screen, dose 10.00 uM) was −1.606. The “SSMD.LYZ.NS_Rep (strictly standardized mean difference)” value (ISC-enriched organoids [3]; [16]) was 0.077, the “SSMD.LYZ.NS_Rep (strictly standardized mean difference)” value (ISC-enriched organoids [3]; [17]) was 0.227 and the “SSMD.LYZ.NS_Rep (strictly standardized mean difference)” value (ISC-enriched organoids [3]; [18]) was 0.049. The “SSMD.LYZ.NS_Rep (strictly standardized mean difference)” value (ISC-enriched organoids [3]; [19]) was −0.826, the Dose.FC.LYZ.NS (ISC-enriched organoids [3]; [4]) was 0.021 log 2 fold change and the Z.LYZ.NS (ISC-enriched organoids [3]; primary screen, dose 0.08 uM) was 0.186. The Dose.FC.LYZ.NS (ISC-enriched organoids [3]; [5]) was 0.065 log 2 fold change, the Z.LYZ.NS (ISC-enriched organoids [3]; primary screen, dose 0.40 uM) was 0.566 and the Dose.FC.LYZ.NS (ISC-enriched organoids [3]; [6]) was 0.005 log 2 fold change. The Z.LYZ.NS (ISC-enriched organoids [3]; primary screen, dose 2.00 uM) was 0.041, the Dose.FC.LYZ.NS (ISC-enriched organoids [3]; [7]) was −0.139 log 2 fold change and the Z.LYZ.NS (ISC-enriched organoids [3]; primary screen, dose 10.00 uM) was −1.209.

From US20230398130A1, “METHODS AND COMPOSITIONS FOR DIFFERENTIATING STEM CELLS” (Massachusetts Institute of Technology, priority 2020, published 2023)
